In patent US20240041827A1, “COMPOSITIONS FOR THE TREATMENT OF FAT RELATED CONDITIONS AND DISORDERS” (priority 2020, published 2024):

Tested on: human visceral preadipocytes
Experiment: in vitro
Protocol: Human visceral preadipocytes were seeded in 96-well white clear bottom plates at 10,000 cells per well in 100 μl pre-adipocyte medium and incubated overnight at 37° C. 5% CO2. On the following day, adipogenic differentiation was induced by addition of 100 μl/well differentiation medium and incubation continued for 5 days. Adipogenic differentiation was verified by microscopic evaluation, addition of adipored reagents and fluorescent measurement at Ex485 nm/Em572 nm. […] Staurosporine (1 μM) and 0.2% DMSO were used as controls. Plates were incubated at 37° C. 5% CO2 for 2, 6 and 24 hours. Following incubation, cytotoxicity was measured using Cell Titer Glo 2.0 (Promega).
Test Item RZL-12 (1-300 μM) was prepared on the day of the testing as 150 mM stock solutions in DMSO. The 150 mM represents a 500×stock of the highest desired tested concentration. The 150 mM stock solution was first serially diluted in DMSO to acquire 500×stock solutions for each of the RZL-012 concentrations. The 500×stock solutions were then diluted 1:25 in medium to acquire 20×intermediate stock solutions. Finally, the 20×intermediate stock solutions were further diluted 1:20 in the assay (on the plate) that included seeded cells.
The 600 μM represents a 20× stock of the highest desired tested concentration. […] Finally, the 20×intermediate stock solutions were further diluted 1:20 in the assay plate that included seeded cells.
Human visceral pre-adipocytes (HPrAD-vis): HPrAD-vis cells (Lonza cat #PT-5005) were thawed at 37° C. and transferred into 50 ml tubes containing pre-adipocytes PGM-2 growth medium (PBM-2, 10% FBS, 1-glutamine, GA-1000). Cells were centrifuged at 300 g for 10 minutes, the supernatant was removed (Leaving about 1 ml of wash medium for not disrupting the cells) and 2 ml fresh PGM-2 medium was added. After resuspension, cells were counted and seeded in T-75 and T25 flasks at a density of 9,000 cells/cm^2 ([…], 225,000 cells/T25 flask). Medium was changed every 2-3 days until reached confluence of 70%.
Cells were sub-cultured only once, as soon as they reached 70% confluence. For this purpose, the culture medium of each flask was removed and cells were washed once with 5 ml PBS. The flask was shaken to ensure that the entire surface was covered and the PBS was removed. Then, 3 ml/T75 flask or 1 ml/T25 flask of fresh dedicated Trypsin/EDTA solution (from Lonza) was added and the flasks were incubated for 3-4 minutes at RT until ˜90% cells were detached. The Trypsin/EDTA solution was then neutralized by addition of 6 ml/T75 flask or 3 ml/T25 flask of full PGM-2 growth medium. Cells were collected in 50 ml tubes and centrifuged 10 minutes at 300 g. The supernatant was removed and the cells were resuspended in 3 ml fresh medium. Cells were then counted using a haemacytometer slide after being diluted 1:2 in trypan blue (SIGMA). For sub-culturing, cells were seeded in new T75 flasks at a density of 9,000 cells/cm^2 containing 15 ml fresh growth medium. Alternatively, the cells were seeded in 96-well culture plates at a density of 10,000 cells/well for the cell treatments.
HPrAD-vis cells: HPrAD-vis passaged once were seeded in 96-well plates as described above (10000cells/well in 100 μl medium) and allowed to settle overnight at 37° C., 5% CO2. Following day, adipogenic differentiation was induced by addition of 100 μl/well differentiation medium and incubated for 5 days. Adipogenic differentiation was verified by microscopic evaluation, addition of adipored reagents and fluorescent measurement at Ex485 nm/Em572 nm. In the morning of day 6, test and reference items were prepared as described above. Cells' medium was replaced with 90 μl fresh differentiation medium. […] Staurosporine (1 μM) and 0.2% DMSO were used as controls. Plates were incubated at 37° C. 5% CO2 for 2, 6 and 24 hours. Following incubation, cell viability was determined using the CellTiter-Gg® viability reagent (Promega) with reading of plates for luminescence. […]

C[N+](C)(C)CCCCCn1c2ccc(Br)cc2c2cc(Br)ccc21.[Cl-] [RZL-012, 5-(3,6-dibromo-9H-carbazol-9-yl)-N,N,N-trimethylpentan-1-aminium chloride]
Average RZL-012 and collagenase induced cell death (% vs untreated cells) (RZL12 10 μM, Collagenase 0, 2 h of incubation): 10.4%
Average RZL-012 and collagenase induced cell death (% vs untreated cells) (RZL12 10 μM, Collagenase 0, 24 h of incubation): 12.80%
Average RZL-012 and collagenase induced cell death (% vs untreated cells) (RZL12 10 μM, Collagenase 0.1 μM, 2 h of incubation): 4.9%
Average RZL-012 and collagenase induced cell death (% vs untreated cells) (RZL12 10 μM, Collagenase 0.1 μM, 24 h of incubation): 9.43%
Average RZL-012 and collagenase induced cell death (% vs untreated cells) (RZL12 10 μM, Collagenase 0.3 μM, 2 h of incubation): 5.0%
Average RZL-012 and collagenase induced cell death (% vs untreated cells) (RZL12 10 μM, Collagenase 0.3 μM, 24 h of incubation): 5.50%
Average RZL-012 and collagenase induced cell death (% vs untreated cells) (RZL12 10 μM, Collagenase 1 μM, 2 h of incubation): 7.8%
Average RZL-012 and collagenase induced cell death (% vs untreated cells) (RZL12 10 μM, Collagenase 1 μM, 24 h of incubation): 16.08%
Average RZL-012 and collagenase induced cell death (% vs untreated cells) (RZL12 10 μM, Collagenase 3 μM, 2 h of incubation): 17.7%
Average RZL-012 and collagenase induced cell death (% vs untreated cells) (RZL12 10 μM, Collagenase 3 μM, 24 h of incubation): 33.99%
Average RZL-012 and collagenase induced cell death (% vs untreated cells) (RZL12 10 μM, Collagenase 10 μM, 2 h of incubation): 22.3%
Average RZL-012 and collagenase induced cell death (% vs untreated cells) (RZL12 10 μM, Collagenase 10 μM, 24 h of incubation): 65.12%
Average RZL-012 and collagenase induced cell death (% vs untreated cells) (RZL12 10 μM, Collagenase 30 μM, 2 h of incubation): 45.0%
Average RZL-012 and collagenase induced cell death (% vs untreated cells) (RZL12 10 μM, Collagenase 30 μM, 24 h of incubation): 80.04%
Average RZL-012 and collagenase induced cell death (% vs untreated cells) (RZL12 30 μM, Collagenase 0, 2 h of incubation): 50.4%
Average RZL-012 and collagenase induced cell death (% vs untreated cells) (RZL12 30 μM, Collagenase 0, 24 h of incubation): 72.72%
Average RZL-012 and collagenase induced cell death (% vs untreated cells) (RZL12 30 μM, Collagenase 0.1 μM, 2 h of incubation): 43.8%
Average RZL-012 and collagenase induced cell death (% vs untreated cells) (RZL12 30 μM, Collagenase 0.1 μM, 24 h of incubation): 28.35%
Average RZL-012 and collagenase induced cell death (% vs untreated cells) (RZL12 30 μM, Collagenase 0.3 μM, 2 h of incubation): 35.0%
Average RZL-012 and collagenase induced cell death (% vs untreated cells) (RZL12 30 μM, Collagenase 0.3 μM, 24 h of incubation): 23.76%
Average RZL-012 and collagenase induced cell death (% vs untreated cells) (RZL12 30 μM, Collagenase 1 μM, 2 h of incubation): 45.8%
Average RZL-012 and collagenase induced cell death (% vs untreated cells) (RZL12 30 μM, Collagenase 1 μM, 24 h of incubation): 31.37%
Average RZL-012 and collagenase induced cell death (% vs untreated cells) (RZL12 30 μM, Collagenase 3 μM, 2 h of incubation): 49.7%
Average RZL-012 and collagenase induced cell death (% vs untreated cells) (RZL12 30 μM, Collagenase 3 μM, 24 h of incubation): 79.97%
Average RZL-012 and collagenase induced cell death (% vs untreated cells) (RZL12 30 μM, Collagenase 10 μM, 2 h of incubation): 33.2%
Average RZL-012 and collagenase induced cell death (% vs untreated cells) (RZL12 30 μM, Collagenase 10 μM, 24 h of incubation): 83.68%
Average RZL-012 and collagenase induced cell death (% vs untreated cells) (RZL12 30 μM, Collagenase 30 μM, 2 h of incubation): 46.0%
Average RZL-012 and collagenase induced cell death (% vs untreated cells) (RZL12 30 μM, Collagenase 30 μM, 24 h of incubation): 90.00%
Average RZL-012 and collagenase induced cell death (% vs untreated cells) (RZL12 100 μM, Collagenase 0, 2 h of incubation): 99.7%
Average RZL-012 and collagenase induced cell death (% vs untreated cells) (RZL12 100 μM, Collagenase 0, 24 h of incubation): 99.89%
Average RZL-012 and collagenase induced cell death (% vs untreated cells) (RZL12 100 μM, Collagenase 0.1 μM, 2 h of incubation): 99.5%
Average RZL-012 and collagenase induced cell death (% vs untreated cells) (RZL12 100 μM, Collagenase 0.1 μM, 24 h of incubation): 99.66%
Average RZL-012 and collagenase induced cell death (% vs untreated cells) (RZL12 100 μM, Collagenase 0.3 μM, 2 h of incubation): 99.3%
Average RZL-012 and collagenase induced cell death (% vs untreated cells) (RZL12 100 μM, Collagenase 0.3 μM, 24 h of incubation): 99.60%
Average RZL-012 and collagenase induced cell death (% vs untreated cells) (RZL12 100 μM, Collagenase 1 μM, 2 h of incubation): 98.9%
Average RZL-012 and collagenase induced cell death (% vs untreated cells) (RZL12 100 μM, Collagenase 1 μM, 24 h of incubation): 99.65%
Average RZL-012 and collagenase induced cell death (% vs untreated cells) (RZL12 100 μM, Collagenase 3 μM, 2 h of incubation): 97.4%
Average RZL-012 and collagenase induced cell death (% vs untreated cells) (RZL12 100 μM, Collagenase 3 μM, 24 h of incubation): 99.89%
Average RZL-012 and collagenase induced cell death (% vs untreated cells) (RZL12 100 μM, Collagenase 10 μM, 2 h of incubation): 72.4%
Average RZL-012 and collagenase induced cell death (% vs untreated cells) (RZL12 100 μM, Collagenase 10 μM, 24 h of incubation): 99.92%
Average RZL-012 and collagenase induced cell death (% vs untreated cells) (RZL12 100 μM, Collagenase 30 μM, 2 h of incubation): 76.4%
Average RZL-012 and collagenase induced cell death (% vs untreated cells) (RZL12 100 μM, Collagenase 30 μM, 24 h of incubation): 99.99%
Average RZL-012 and collagenase induced cell death (% vs untreated cells) (RZL12 300 μM, Collagenase 0, 2 h of incubation): 99.9%
Average RZL-012 and collagenase induced cell death (% vs untreated cells) (RZL12 300 μM, Collagenase 0, 24 h of incubation): 100.00%
Average RZL-012 and collagenase induced cell death (% vs untreated cells) (RZL12 300 μM, Collagenase 0.1 μM, 2 h of incubation): 99.6%
Average RZL-012 and collagenase induced cell death (% vs untreated cells) (RZL12 300 μM, Collagenase 0.1 μM, 24 h of incubation): 99.67%
Average RZL-012 and collagenase induced cell death (% vs untreated cells) (RZL12 300 μM, Collagenase 0.3 μM, 2 h of incubation): 99.6%
Average RZL-012 and collagenase induced cell death (% vs untreated cells) (RZL12 300 μM, Collagenase 0.3 μM, 24 h of incubation): 99.74%
Average RZL-012 and collagenase induced cell death (% vs untreated cells) (RZL12 300 μM, Collagenase 1 μM, 2 h of incubation): 99.1%
Average RZL-012 and collagenase induced cell death (% vs untreated cells) (RZL12 300 μM, Collagenase 1 μM, 24 h of incubation): 99.96%
Average RZL-012 and collagenase induced cell death (% vs untreated cells) (RZL12 300 μM, Collagenase 3 μM, 2 h of incubation): 96.6%
Average RZL-012 and collagenase induced cell death (% vs untreated cells) (RZL12 300 μM, Collagenase 3 μM, 24 h of incubation): 99.76%
Average RZL-012 and collagenase induced cell death (% vs untreated cells) (RZL12 300 μM, Collagenase 10 μM, 2 h of incubation): 89.2%
Average RZL-012 and collagenase induced cell death (% vs untreated cells) (RZL12 300 μM, Collagenase 10 μM, 24 h of incubation): 99.82%
Average RZL-012 and collagenase induced cell death (% vs untreated cells) (RZL12 300 μM, Collagenase 30 μM, 2 h of incubation): 89.5%
Average RZL-012 and collagenase induced cell death (% vs untreated cells) (RZL12 300 μM, Collagenase 30 μM, 24 h of incubation): 100.01%
concentrations at which the cytotoxic effect was observed (at all time points (2, 6, 24 h)): > 30 µM
